Results taken from patent publication US9580430B2, “9H-pyrimido[4,5-B]indoles and related analogs as BET bromodomain inhibitors” (THE REGENTS OF THE UNIVERSITY OF MICHIGAN, priority 2014, dated 2017).
Where two headings read alike, the source gives them in different places.

Experiments:
recombinant BRD4 BD1 = target: T1, recombinant BRD4 BD1 (Homo sapiens, UniProt O60885); test: Competitive fluorescence-polarization (FP) binding assay, BRD4 BD1; conditions: for Ki: read-out: Binding affinities (FP) BRD4BD1 Ki; on IC50 (nM) BRD4 BD1: probe 1.5 nM
T1 construct: for recombinant BRD4 BD1 and BRD4 BD2 proteins
Method: (§1) Fluorescence Polarization (FP) competitive binding studies were carried out using a FAM labeled fluorescent probe (ZBA248 or BRD-1F) to determine binding affinities of representative Compounds of the Disclosure for recombinant BRD4 BD1 and BRD4 BD2 proteins. For example, equilibrium dissociation constants (Kd) values of ZBA248 to these […] proteins were determined from protein saturation experiments by monitoring the total fluorescence polarization of mixtures composed with the fluorescent probe at a fixed concentration and proteins with increasing concentrations up to full saturation. Serial dilutions of testing protein were mixed with ZBA248 to a final volume of 200 μl in the assay buffer. […] Plates were incubated at room temperature for 30 minutes with gentle shaking to assure equilibrium. […] Kd values of ZBA248 were calculated by fitting the sigmoidal dose-dependent FP increases as a function of protein concentrations using Graphpad Prism 6.0 software (Graphpad Software, San Diego, Calif.).
(§2) The IC50 and Ki values of representative Compounds of the Disclosure were determined in a competitive binding experiment as described above. Mixtures of 10 μl of the tested compounds in assay buffer with 40% Ethylene Glycol and 190 μl of preincubated protein/probe complex solution in the assay buffer (100 mM potassium phosphate, pH 6.5, 0.01% Triton X-100) were added into assay plates which were incubated at room temperature for 30 minutes with gentle shaking. Final concentrations of proteins were 10 and 6 nM in assays for BD1 and BD2 of BRD4, respectively. […] FP values were measured as described above. IC50 values were determined by nonlinear regression fitting of the competition curves.

recombinant BRD4 BD2 = target: T2, recombinant BRD4 BD2 (Homo sapiens, UniProt O60885); test: Competitive fluorescence-polarization (FP) binding assay, BRD4 BD2; conditions: for Ki: read-out: Binding affinities (FP) BRD4BD2 Ki; on IC50 (nM) BRD4 BD2: probe 1.5 nM
T2 construct: for recombinant BRD4 BD1 and BRD4 BD2 proteins
Method: as §1, §2

MDA-MB-436 = test: Cell growth inhibition, MDA-MB-436 breast cancer cells (WST-8); type: cell-based; conditions: Homo sapiens, 96 h; MDA-MB-436 cells, 4 days; read-out: Cellular data MDA-MB-436 IC50
Method: All the breast cancer cell lines were obtained from the ATCC. Cell viability was determined using the WST-8 (2-(2-methoxy-4-nitrophenyl)-3-(4-nitrophenyl)-5-(2,4-disulfophenyl)-2H-tetrazolium, monosodium salt) based Cell Counting-8 Kit (Dojindo Molecular Technologies, Inc., Rockville, Md.) according to the manufacture's instruction. […] The absorbance was measured at 450 nm using a SPECTRAmax PLUS plate reader (Molecular Devices, Sunnyvale, Calif.). The IC50 was calculated using the GraphPad Prism 5 software.

[1] = competitive FP assay, protein 10 nM, probe […], read-out: IC50 (nM) BRD4 BD1
[2] = FP competitive binding, BRD4 BD1, read-out: Binding affinities (FP) BRD4BD1 IC50
[3] = FP competitive binding, BRD4 BD1
[4] = FP competitive binding, BRD4 BD2, read-out: Binding affinities (FP) BRD4BD2 IC50
[5] = competitive FP assay, protein 6 nM, probe […], read-out: IC50 (nM) BRD4 BD2
[6] = FP competitive binding, BRD4 BD2

Row | IC50 (recombinant BRD4 BD1; [1]) [nM] | IC50 (recombinant BRD4 BD1; [2]) [nM] | Ki (recombinant BRD4 BD1; [3]) [µM] | IC50 (recombinant BRD4 BD2; [4]) [nM] | IC50 (MDA-MB-436) [µM] | IC50 (recombinant BRD4 BD2; [5]) [nM] | Ki (recombinant BRD4 BD2; [6]) [µM] | Structure (SMILES)
1 | 8.8 | – | – | – | – | – | – | COc1cc2c(cc1-c1c(C)noc1C)[nH]c1nc(C)nc(Nc3cc(C4CC4)nn3C3CNC3)c12 [Cpd. No. 163, N-(1-(Azetidin-3-yl)-3-cyclopropyl-1H-pyrazol-5-yl)-7-(3,5-dimethylisoxazol-4-yl)-6-methoxy-2-methyl-9H-pyrimido[4,5-b]indol-4-amine]
2 | – | 1090 | 0.602 | > 1000 | 1.1 | – | – | COc1nc2c(cc1-c1c(C)noc1C)[nH]c1nc(C)nc(Nc3nn(C)c4ncccc34)c12 [compound 311, 7-(3,5-dimethylisoxazol-4-yl)-6-methoxy-2-methyl-N-(1-methyl-1H-pyrazolo[3,4-b]pyridin-3-yl)-9H-pyrido[2′,3′:4,5]pyrrolo [2,3-d]pyrimidin-4-amine]
3 | 864 | – | – | – | – | 379 | – | COc1cc2c(cc1-c1c(C)noc1C)[nH]c1nc(C)nc(Oc3cccnc3)c12 [Cpd. No. 96, 4-(6-methoxy-2-methyl-4-(pyridin-3-yloxy)-9H-pyrimido[4,5-b]indol-7-yl)-3,5-dimethylisoxazole]
4 | – | 457 | 0.146 | 986 | > 2 | – | 0.209 | COc1nc2c(cc1-c1c(C)noc1C)[nH]c1nc(C)nc(Nc3cc(C(C)(C)C)nn3C)c12 [compound 314, N-(3-(tert-butyl)-1-methyl-1H-pyrazol-5-yl)-7-(3,5-dimethylisoxazol-4-yl)-6-methoxy-2-methyl-9H-pyrido[2′,3′:4,5]pyrrolo [2,3-d]pyrimidin-4-amine]
5 | – | 28 | 0.0078 | 16 | 0.164 | – | 0.0047 | COc1nc2c(cc1-c1c(C)noc1C)[nH]c1nc(C)nc(N(C)c3cc(C(C)(C)C)nn3C)c12 [compound 315, N-(3-(tert-butyl)-1-methyl-1H-pyrazol-5-yl)-7-(3,5-dimethylisoxazol-4-yl)-6-methoxy-N,2-dimethyl-9H-pyrido[2′,3′:4,5]pyrrolo[2,3-d] pyrimidin-4-amine]
6 | 8.1 | – | – | – | – | 2.8 | – | COc1cc2c3c(N(C)c4cc(C5CC5)nn4C4CN(C)C4)nc(C)nc3n(C)c2cc1-c1c(C)noc1C [compound 258, N-(3-Cyclopropyl-1-(1-methylazetidin-3-yl)-1H-pyrazol-5-yl)-7-(3,5-dimethyl-isoxazol-4-yl)-6-methoxy-N,2,9-trimethyl-9H-pyrimido[4,5-b]indol-4-amine]
7 | – | 482 | 0.171 | 796 | 4.43 | – | 0.239 | COc1nc2c(cc1-c1c(C)noc1C)[nH]c1nc(C)nc(N(C)C3CCCC3)c12 [compound 321, N-cyclopentyl-7-(3,5-dimethylisoxazol-4-yl)-6-methoxy-N,2-dimethyl-9H-pyrido[2′,3′:4,5]pyrrolo[2,3-d] pyrimidin-4-amine]
8 | – | 35 | 0.012 | 108 | 0.299 | – | 0.034 | COc1nc2c(cc1-c1c(C)noc1C)[nH]c1nc(C)nc(N(C)c3nn(C)c4ncccc34)c12 [compound 318, 7-(3,5-dimethylisoxazol-4-yl)-6-methoxy-N,2-dimethyl-N-(1-methyl-1H-pyrazolo[3,4-b]pyridin-3-yl)-9H-pyrido[2′,3′:4,5]pyrrolo[2,3-d] pyrimidin-4-amine]
9 | – | 10.2 | 0.0018 | 7 | 0.085 | – | 0.0013 | COc1nc2c(cc1-c1c(C)noc1C)[nH]c1nc(C)nc(N(C)c3cc(C4CC4)nn3C)c12 [compound 320, N-(3-cyclopropyl-1-methyl-1H-pyrazol-5-yl)-7-(3,5-dimethylisoxazol-4-yl)-6-methoxy-N,2-dimethyl-9H-pyrido[2′,3′:4,5]pyrrolo[2,3-d] pyrimidin-4-amine]
10 | 10.3 | – | – | – | – | 3.1 | – | COCCn1nc(C2CC2)cc1Nc1nc(C)nc2[nH]c3cc(-c4c(C)noc4C)c(OC)cc3c12 [Cpd. No. 266, N-(3-Cyclopropyl-1-(2-methoxyethyl)-1H-pyrazol-5-yl)-7-(3,5-dimethylisoxazol-4-yl)-6-methoxy-2-methyl-9H-pyrimido[4,5-b]indol-4-amine]
11 | > 1000 | – | – | – | – | > 1000 | – | COc1cc2c(cc1-c1c(C)noc1C)[nH]c1nc(C)nc(Sc3ccccc3C(C)C)c12 [Cpd. No. 25, 4-(4-((2-isopropylphenyl)thio)-6-methoxy-2-methyl-9H-pyrimido[4,5-b]indol-7-yl)-3,5-dimethylisoxazole]
12 | 14.1 | – | – | – | – | – | – | COc1cc2c(cc1-c1c(C)noc1C)[nH]c1nc(C)nc(Nc3cc(C4CC4)nn3CCN(C)C)c12 [Cpd. No. 160, N-(3-Cyclopropyl-1-(2-(dimethylamino)ethyl)-1H-pyrazol-5-yl)-7-(3,5-dimethylisoxazol-4-yl)-6-methoxy-2-methyl-9H-pyrimido[4,5-b]indol-4-amine]
13 | – | 74 | 0.027 | 139 | 1.14 | – | 0.044 | COc1nc2c(cc1-c1c(C)noc1C)[nH]c1nc(C)nc(N(C)c3cccc(C)c3)c12 [compound 317, 7-(3,5-dimethylisoxazol-4-yl)-6-methoxy-N,2-dimethyl-N-(m-tolyl)-9H-pyrido[2′,3′:4,5]pyrrolo[2,3-d] pyrimidin-4-amine]
14 | > 1000 | – | – | – | – | > 1000 | – | COc1cc2c(cc1-c1c(C)noc1C)[nH]c1nc(C)nc(Oc3cccc(Cl)c3)c12 [Cpd. No. 95, 4-(4-(3-chlorophenoxy)-6-methoxy-2-methyl-9H-pyrimido[4,5-b]indol-7-yl)-3,5-dimethylisoxazole]
15 | 5.6 | – | – | – | – | – | – | COc1cc2c(cc1-c1c(C)noc1C)[nH]c1nc(N)nc(Nc3cc(C4CC4)nn3C)c12 [Cpd. No. 206, N4-(3-cyclopropyl-1-methyl-1H-pyrazol-5-yl)-7-(3,5-dimethylisoxazol-4-yl)-6-methoxy-9H-pyrimido[4,5-b]indole-2,4-diamine]
16 | > 1000 | – | – | – | – | > 1000 | – | COc1cc2c(cc1-c1c(C)noc1C)[nH]c1nc(C)nc(Sc3cccc(C(C)(C)C)c3)c12 [Cpd. No. 27, 4-(4-((3-(tert-butyl)phenyl)thio)-6-methoxy-2-methyl-9H-pyrimido[4,5-b]indol-7-yl)-3,5-dimethylisoxazole]
17 | > 1000 | – | – | – | – | > 1000 | – | COc1cc2c(cc1-c1c(C)noc1C)[nH]c1nc(C)nc(Sc3c[nH]c4ccccc34)c12 [Cpd. No. 26, 4-(4-((1H-indol-3-yl)thio)-6-methoxy-2-methyl-9H-pyrimido[4,5-b]indol-7-yl)-3,5-dimethylisoxazole]
18 | 2.9 | – | – | – | – | 1.3 | – | COCc1nc(Nc2cc(C3CC3)nn2C)c2c(n1)[nH]c1cc(-c3c(C)noc3C)c(OC)cc12 [Cpd. No. 207, N-(3-cyclopropyl-1-methyl-1H-pyrazol-5-yl)-7-(3,5-dimethylisoxazol-4-yl)-6-methoxy-2-(methoxymethyl)-9H-pyrimido[4,5-b]indol-4-amine]
19 | 70 | – | – | – | – | 79 | – | COc1cc2c(cc1-c1c(C)noc1C)[nH]c1nc(C)nc(Nc3ccnc(C)c3)c12 [Cpd. No. 248, 7-(3,5-dimethylisoxazol-4-yl)-6-methoxy-2-methyl-N-(2-methylpyridin-4-yl)-9H-pyrimido[4,5-b]indol-4-amine]
20 | – | 63 | 0.015 | 318 | – | – | 0.094 | COc1cc2c(nc1-c1c(C)noc1C)[nH]c1nc(C)nc(Nc3cc(C4CC4)nn3C)c12 [Cpd. No. 304]
21 | – | 18.9 | 0.0037 | 9.8 | – | – | 0.0021 | CCn1nc(C2CC2)cc1Nc1nccc2[nH]c3cc(-c4c(C)noc4C)c(OC)cc3c12 [Cpd. No. 285, N-(3-cyclopropyl-1-ethyl-1H-pyrazol-5-yl)-7-(3,5-dimethylisoxazol-4-yl)-8-methoxy-5H-pyrido[4,3-b]indol-1-amine]
22 | – | 28.7 | 0.0051 | 18.5 | – | – | 0.0046 | COc1cc2c(cc1-c1c(C)noc1C)[nH]c1ccnc(Nc3c4c(nn3C(C)C)CCC4)c12 [Cpd. No. 286, 7-(3,5-dimethylisoxazol-4-yl)-N-(2-isopropyl-2,4,5,6-tetrahydrocyclopenta[c]pyrazol-3-yl)-8-methoxy-5H-pyrido[4,3-b]indol-1-amine]
